Measurements taken from patent US5574070A, “Substituted guanidines having high binding to the sigma receptor and the use thereof” (priority 1993, dated 1996).
Entries after “also recorded” stand apart in the source; their conditions may differ. Counter-ions that a name gives are not always drawn. Like-named read-outs stand apart in the source and are kept apart here.

System: sigma receptor
Test: [3H]DTG displacement radioligand binding assay, guinea pig brain membranes
[1] = Example 25, guinea pig brain membrane homogenates, read-out: IC50 binding values
[2] = list of especially preferred compounds, read-out: IC50 (high binding to the sigma receptor)
[3] = read-out: IC50 vs [3H]DTG, Table I, guinea pig brain membranes

Row | Compound | in vitro [3H]DTG displacement activity | IC50 [1] [nM] | IC50 [2] [nM] | further results
1 | N=C(NCc1ccccc1)NCc1ccccc1 [N,N'-dibenzylguanidine] | found to possess the aforesaid in vitro [^3 H]DTG displacement activity | 90 | 90 | 
2 | CC(C)c1ccccc1NC(=N)NC12CC3CC(CC(C3)C1)C2 [N-(adamant-1-yl)-N'-(o-isopropylphenyl)guanidine] | found to possess the aforesaid in vitro [^3 H]DTG displacement activity | 24 | 24 | 
3 | Cc1ccccc1NC(=N)Nc1c(C)cccc1C [N-(2,6-dimethylphenyl)-N'-(2-methylphenyl)-guanidine] | found to possess the aforesaid in vitro [^3 H]DTG displacement activity | 70 | 70 | IC50 [3]: 70 ± 3 nM
4 | N=C(N)NCC(=O)O [guanidino acetic acid, reference compound] |  |  |  | displacement of [3H]DTG (10 uM): no significant displacement
5 | Cc1ccccc1NC(=N)Nc1ccc([N+](=O)[O-])cc1C [N-(2-Methyl-4-nitrophenyl)-N'-(2-methyl-phenyl)guanidine] | found to possess the aforesaid in vitro [^3 H]DTG displacement activity | 37 | 37 | IC50 [3]: 37 ± 5 nM
6 | CN1CCc2cc3c(cc2[C@H]1[C@@H]1OC(=O)c2c1ccc1c2OCO1)OCO3 [bicuculline, reference compound] |  |  |  | displacement of [3H]DTG (10 uM): no significant displacement
7 | N=C(NC1CC2CCC1C2)NC1CC2CCC1C2 (racemic) [N,N'-di-((±)-endo-2-norbornyl)guanidine] | found to possess the aforesaid in vitro [^3 H]DTG displacement activity | 16 | 16 | 
8 | CN/C(=N/CCSCc1nc[nH]c1C)NC#N [cimetidine, reference compound] |  |  |  | displacement of [3H]DTG: no significant displacement
9 | CN(C)CCC=C1c2ccccc2CCc2ccccc21 [Amitriptyline, reference compound] |  |  |  | IC50 (read-out: IC50 vs. [3H]DTG, Table III, ± SEM, average from 2-4 separate experiments in triplicate): 300 ± 7 nM
10 | Cc1ccccc1NC(=N)N[C@@H]1C[C@@H]2CC[C@H]1C2 (relative stereo) [N-((±)-endo-2-norbornyl)-N'-(2-methylphenyl)guanidine] |  |  | 6 | 
11 | Cc1ccccc1NC(=N)NC1C2CC3CC(C2)CC1C3 (stereo not shown) [N-(adamant-2-yl)-N'-(2-methylphenyl)guanidine] |  |  | 7 | 
12 | Cc1cc(Br)ccc1NC(=N)NC12CC3CC(CC(C3)C1)C2 [N-(adamant-1-yl)-N'-(p-bromo-o-tolyl)guanidine] | found to possess the aforesaid in vitro [^3 H]DTG displacement activity |  | 2.7 | 
13 | CC12CC3CC(C)(C1)CC(NC(=N)Nc1ccccc1I)(C3)C2 [N-(3,5-dimethyl-1-adamantanyl)-N'-(o-iodophenyl)guanidine] | found to possess the aforesaid in vitro [^3 H]DTG displacement activity | 16 | 16 | 
14 | Cc1cc(I)ccc1NC(=N)Nc1ccc(I)cc1C [N,N'-di-(2-methyl-4-iodophenyl)guanidine] | found to possess the aforesaid in vitro [^3 H]DTG displacement activity |  |  | 
15 | CC(C)(C)NC(=N)Nc1ccccc1I [N-(o-iodophenyl)-N'-(t-butyl)guanidine] | found to possess the aforesaid in vitro [^3 H]DTG displacement activity | 20 | 20 | 
16 | CNC(=N)N [methyl-guanidine, reference compound] |  |  |  | displacement of [3H]DTG (10 uM): no significant displacement
17 | Cc1ccccc1NC(=N)N[C@H]1C[C@@H]2CC[C@@]1(C)C2(C)C (relative stereo) [N-(exo-2-isobornyl)-N'-(o-tolyl)guanidine] | found to possess the aforesaid in vitro [^3 H]DTG displacement activity | 25 | 25 | 
18 | C[N+](C)(C)CCCCCC[N+](C)(C)C [hexamethonium, reference compound] |  |  |  | displacement of [3H]DTG (10 uM): no significant displacement
19 | N=C(Nc1ccccc1I)N[C@H]1C[C@@H]2CC[C@H]1C2 (relative stereo) [N-(exo-2-norbornyl)-N'-(2-iodophenyl)guanidine] |  |  | 4 | 
20 | CNCCC=C1c2ccccc2CCc2ccccc21 [Nortriptyline, reference compound] |  |  |  | IC50 (read-out: IC50 vs. [3H]DTG): 2000 nM
21 | N=C(N)NCCCC(=O)O [gamma-guanidino butyric acid, reference compound] |  |  |  | displacement of [3H]DTG (10 uM): no significant displacement
22 | beta-endorphin [reference compound] |  |  |  | displacement of [3H]DTG (10 uM): no significant displacement
23 | Cc1cc(Br)ccc1NC(=N)Nc1ccc(Br)cc1C [Example 4-Br--DTG, N,N'-Di-(4-bromo-2-methylphenyl)guanidine] | found to possess the aforesaid in vitro [^3 H]DTG displacement activity | 37 | 37 | IC50 [3]: 37 ± 3 nM
24 | 1,1-dimethyl-4-guanidine [reference compound] |  |  |  | displacement of [3H]DTG: no significant displacement
25 | O=C1CC2(CCCC2)CC(=O)N1CCCCN1CCN(c2nsc3ccccc23)CC1 [tiospirone, reference compound] |  | 233 ± 52 |  | 

Row | Compound | in vitro [3H]DTG displacement activity | IC50 [1] [nM] | IC50 [2] [nM] | further results
26 | N=C(Nc1ccccc1[N+](=O)[O-])NC12CC3CC(CC(C3)C1)C2 [N-(1-adamantyl)-N'-(o-nitrophenyl)guanidine] | found to possess the aforesaid in vitro [^3 H]DTG displacement activity | 30 | 30 | 
27 | Cc1ccccc1NC(=N)Nc1ccc(N=[N+]=[N-])cc1C [N-(2-Methyl-4-azido-phenyl)-N'-(2-methylphenyl)guanidine] | found to possess the aforesaid in vitro [^3 H]DTG displacement activity |  | 20 | IC50 [3]: 20 ± 1 nM
28 | Cc1ccccc1NC(=N)NC12CC3CC(C)(CC(C)(C3)C1)C2 [N-(3,5-dimethyladamantan-1-yl)-N'-(o-tolyl)guanidine] | found to possess the aforesaid in vitro [^3 H]DTG displacement activity | 15 | 15 | 
29 | CN(C)CCCN1c2ccccc2CCc2ccccc21 [Imipramine, reference compound] |  |  |  | IC50 (read-out: IC50 vs. [3H]DTG): 520 ± 14 nM
30 | CN(CC(=O)O)C(=N)N [creatine, reference compound] |  |  |  | displacement of [3H]DTG (10 uM): no significant displacement
31 | Cc1cccc(C)c1NC(=N)Nc1c(C)cccc1C [DXG, N,N'-di-(2,6-dimethylphenyl)guanidine] | found to possess the aforesaid in vitro [^3 H]DTG displacement activity | 90 ± 18 | 90 | IC50 [3]: 90 ± 18 nM
32 | CC1(C)[C@H]2CC[C@]1(C)[C@@H](NC(=N)Nc1ccccc1I)C2 (relative stereo) [N-(exo-2-isobornyl)-N'-(o-iodophenyl)guanidine] | found to possess the aforesaid in vitro [^3 H]DTG displacement activity | 18 | 18 | 
33 | C=CCN1CC[C@]23c4c5ccc(O)c4O[C@H]2C(=O)CC[C@@]3(O)[C@H]1C5 [naloxone, reference compound] |  |  |  | displacement of [3H]DTG (10 uM): no significant displacement
34 | N=C1Nc2ccccc2-c2ccccc2N1 [Bridge-DPG, 2-imino-1,3H-dibenzo[d,f]-[1,3]-diazepine] |  | > 10000 |  | 
35 | CCc1cccc(N2CCN(c3cccc(CC)c3)C2=N)c1 [N,N'-Bis (3-ethylphenyl)-2-imino-imidazolidine] |  |  | 70 | 
36 | N=C(Nc1ccc(I)cc1)NC1C2CC3CC(C2)CC1C3 (stereo not shown) [N-(adamant-2-yl)-N'-(p-iodophenyl)guanidine] | found to possess the aforesaid in vitro [^3 H]DTG displacement activity | 2.7 |  | 
37 | Cc1ccccc1NC(=N)Nc1ccc(N)cc1C [NH2 --DTG, N-(2-Methyl-4-aminophenyl)-N'-(2-methylphenyl)-guanidine hydrochloride] |  | 280 ± 20 |  | IC50 [3]: 280 ± 14 nM
38 | CCCCNC(=N)NCCCC [N,N'-di-n-butyl-guanidine] | found to possess the aforesaid in vitro [^3 H]DTG displacement activity |  |  | IC50 [3]: 750 ± 33 nM
39 | N=C(N)NCCC(=O)O [beta-guanidino propionic acid, reference compound] |  |  |  | displacement of [3H]DTG (10 uM): no significant displacement
40 | O=C(CCCN1CCC(O)(c2ccc(Cl)cc2)CC1)c1ccc(F)cc1 [Haloperidol, reference compound] |  |  |  | affinity for / displacement at the [3H]DTG binding site: all specific binding is displaceable by haloperidol; also recorded: highest displacement potency of all drugs tested
41 | CNC(=N)NC [DMG, N,N'-di(methyl)guanidine, reference compound] |  | > 10000 |  | 
42 | CN1CCc2cccc3c2[C@H]1Cc1ccc(O)c(O)c1-3 [apomorphine, reference compound] |  |  |  | displacement of [3H]DTG (10 uM): no significant displacement
43 | CN(C)CCCN1c2ccccc2Sc2ccc(C(F)(F)F)cc21 [Trifluopromazine, reference compound] |  |  |  | IC50 (read-out: IC50 vs. [3H]DTG): 605 ± 67 nM
44 | N=C(Nc1ccccc1I)NC1C2CC3CC(C2)CC1C3 (stereo not shown) [N-(adamant-2-yl)-N'-(2-iodophenyl)guanidine] |  | 5.2 | 3.5 | 
45 | dynorphin A [reference compound] |  |  |  | displacement of [3H]DTG (10 uM): no significant displacement
46 | N=C(NC1CCCCC1)NC1CCCCC1 [N,N'-di(cyclohexyl)guanidine] | found to possess the aforesaid in vitro [^3 H]DTG displacement activity | 71 | 71 | IC50 [3]: 71 ± 7 nM
47 | CN(C)CCCN1c2ccccc2Sc2ccc(Cl)cc21 [Chlorpromazine, reference compound] |  |  |  | IC50 (read-out: IC50 binding values): 1480 ± 265 nM; IC50 (read-out: IC50 vs. [3H]DTG): 1480 nM
48 | C=CCN1CCC2(C)c3cc(O)ccc3CC1C2C (single isomer, unassigned; (+)) [(+)SKF 10,047, N-allyl-normetazocine, reference compound] |  |  |  | IC50 (read-out: IC50 vs. [3H]DTG): 625 ± 88 nM
49 | CN1CC(=O)NC1=N [creatinine, reference compound] |  |  |  | displacement of [3H]DTG (10 uM): no significant displacement
50 | Cc1ccccc1NC(=N)Nc1ccccc1I [N-(2-iodophenyl)-N'-(2-methylphenyl)-guanidine] | found to possess the aforesaid in vitro [^3 H]DTG displacement activity | 21 | 21 | IC50 [3]: 21 ± 1 nM
